Data from patent publication US5919756A, “Amides” (Eli Lilly and Company, priority 1997, dated 1999).
≈ marks a conversion by molar mass, not a printed value.

What was measured:
Format in all cases: cell-based
[1] = test system: Enterococcus, Resistant (4-6 isolates); assay: Enterococcus screen, broth micro-dilution MIC, resistant isolates; parameters: unit not given here; conditions: mean of 4-6 isolates
Description: (§1) The antibacterial efficacy of the present compounds is illustrated in TABLE 2. The minimal inhibitory concentrations (MICs) were determined using a standard broth micro-dilution assay.

[2] = test system: Enterococcus, Sensitive (4-6 isolates); assay: Enterococcus screen, broth micro-dilution MIC, sensitive isolates; parameters: unit not given here; conditions: mean of 4-6 isolates
Description: as §1

[3] = test system: Staphylococcus aureus 446; assay: Broth micro-dilution MIC, SA 446; conditions: unit assumed
Description: as §1

[4] = test system: Staphylococcus aureus 489; assay: Broth micro-dilution MIC, SA 489; conditions: unit assumed
Description: as §1

[5] = test system: Staphylococcus aureus 447; assay: Broth micro-dilution MIC, SA 447; conditions: unit assumed
Description: as §1

[6] = test system: Staphylococcus haemolyticus 105; assay: Broth micro-dilution MIC, SH 105; conditions: unit assumed
Description: as §1

[7] = test system: Staphylococcus haemolyticus 415; assay: Broth micro-dilution MIC, SH 415; conditions: unit assumed
Description: as §1

[8] = test system: Staphylococcus epidermis 270; assay: Broth micro-dilution MIC, SE 270; conditions: unit assumed
Description: as §1

[9] = test system: Streptococcus pneumoniae P1; assay: Broth micro-dilution MIC, S PN P1; conditions: unit assumed
Description: as §1

[10] = test system: Streptococcus pyogenes 203; assay: Broth micro-dilution MIC, S PY 203; conditions: unit assumed
Description: as §1

| Molecule | Minimum Inhibitory Concentrations (MICs), Mean Values of 4-6 Isolates, Resistant [1] | Minimum Inhibitory Concentrations (MICs), Mean Values of 4-6 Isolates, Sensitive [2] | MIC, SA 446 [3] [µg/mL] | MIC, SA 489 [4] [µg/mL] | MIC, SA 447 [5] [µg/mL] | MIC, SH105 [6] [µg/mL] | MIC, SH415 [7] [µg/mL] | MIC, SE270 [8] [µg/mL] | MIC, S PN P1 [9] [µg/mL] | MIC, S PY 203 [10] [µg/mL] |
| --- | --- | --- | --- | --- | --- | --- | --- | --- | --- | --- |
| CNC(CC(C)C)C(=O)NC1C(=O)NC(CC(N)=O)C(=O)NC2C(=O)NC3C(=O)NC(C(=O)NC(C(=O)NCCCOC)c4cc(O)cc(O)c4-c4cc3ccc4O)C(OC3CC(C)(N)C(O)C(C)O3)c3ccc(c(Cl)c3)Oc3cc2cc(c3OC2OC(CO)C(O)C(O)C2OC2CC(C)(NCc3ccc(-c4ccccc4)cc3)C(O)C(C)O2)Oc2ccc(cc2Cl)C1O (centres unmarked) [Example 13, N^4-(4-phenylbenzyl)A82846B, (3-methoxypropyl)amide] | 1.4 | 0.072 | 1 (≈ 0.547 µM) | 1 (≈ 0.547 µM) | 1 (≈ 0.547 µM) | 2 (≈ 1.09 µM) | 0.5 (≈ 0.273 µM) | 1 (≈ 0.547 µM) | ≤ 0.06 | ≤ 0.06 |
| CCCCc1ccc(CNC2(C)CC(OC3C(Oc4c5cc6cc4Oc4ccc(cc4Cl)C(OC4CC(C)(N)C(O)C(C)O4)C4NC(=O)C(NC(=O)C6NC(=O)C(CC(N)=O)NC(=O)C(NC(=O)C(CC(C)C)NC)C(O)c6ccc(c(Cl)c6)O5)c5ccc(O)c(c5)-c5c(O)cc(O)cc5C(C(=O)NCCc5ccccc5)NC4=O)OC(CO)C(O)C3O)OC(C)C2O)cc1.O=C(O)C(F)(F)F (centres unmarked) [Example 15, N^4-(4-n-butylbenzyl)A82846B, phenethylamide, trifluoroacetate salt] | 1.7 | 0.22 | 2 | 2 | 2 | 1 | 2 | 2 | ≤ 0.06 | ≤ 0.06 |
| CNC(CC(C)C)C(=O)NC1C(=O)NC(CC(N)=O)C(=O)NC2C(=O)NC3C(=O)NC(C(=O)NC(C(=O)NCCc4ccccc4)c4cc(O)cc(O)c4-c4cc3ccc4O)C(OC3CC(C)(N)C(O)C(C)O3)c3ccc(c(Cl)c3)Oc3cc2cc(c3OC2OC(CO)C(O)C(O)C2OC2CC(C)(NCc3ccc(-c4ccccc4)cc3)C(O)C(C)O2)Oc2ccc(cc2Cl)C1O.Cl (centres unmarked) [Example 18, N^4-(4-phenylbenzyl)A82846B, phenethylamide, HCl salt] | 0.84 | 0.19 | 1 | 2 | 1 | 2 | 2 | 1 | ≤ 0.06 | ≤ 0.06 |
| CNC(CC(C)C)C(=O)NC1C(=O)NC(CC(N)=O)C(=O)NC2C(=O)NC3C(=O)NC(C(=O)NC(C(=O)NCCc4ccccc4)c4cc(O)cc(O)c4-c4cc3ccc4O)C(OC3CC(C)(N)C(O)C(C)O3)c3ccc(c(Cl)c3)Oc3cc2cc(c3OC2OC(CO)C(O)C(O)C2OC2CC(C)(NCc3ccc(-c4ccc(C)cc4)cc3)C(O)C(C)O2)Oc2ccc(cc2Cl)C1O (centres unmarked) [Example 19, N^4-(4-(4-methylphenyl)benzyl)-A82846B, phenethylamide] | 1 | 0.22 | 2 (≈ 1.07 µM) | 2 (≈ 1.07 µM) | 4 (≈ 2.13 µM) | 2 (≈ 1.07 µM) | 4 (≈ 2.13 µM) | 2 (≈ 1.07 µM) | ≤ 0.06 | ≤ 0.06 |
| CNC(CC(C)C)C(=O)NC1C(=O)NC(CC(N)=O)C(=O)NC2C(=O)NC3C(=O)NC(C(=O)NC(C(=O)NCCCc4ccccc4)c4cc(O)cc(O)c4-c4cc3ccc4O)C(OC3CC(C)(N)C(O)C(C)O3)c3ccc(c(Cl)c3)Oc3cc2cc(c3OC2OC(CO)C(O)C(O)C2OC2CC(C)(N)C(O)C(C)O2)Oc2ccc(cc2Cl)C1O (centres unmarked) [Example 20, A82846B, (3-phenyl-n-propyl) amide] | 11 | 0.22 | 0.125 (≈ 0.0731 µM) | ≤ 0.06 | ≤ 0.06 | 0.125 (≈ 0.0731 µM) | 0.25 (≈ 0.146 µM) | ≤ 0.06 | ≤ 0.06 | ≤ 0.06 |
| CNC(CC(C)C)C(=O)NC1C(=O)NC(CC(N)=O)C(=O)NC2C(=O)NC3C(=O)NC(C(=O)NC(C(=O)NCCCN(C)C)c4cc(O)cc(O)c4-c4cc3ccc4O)C(OC3CC(C)(N)C(O)C(C)O3)c3ccc(c(Cl)c3)Oc3cc2cc(c3OC2OC(CO)C(O)C(O)C2OC2CC(C)(NCc3ccc(-c4ccccc4)cc3)C(O)C(C)O2)Oc2ccc(cc2Cl)C1O (centres unmarked) [Example 21, N^4-(4-phenylbenzyl)A82846B, (3-(dimethylamino)-n-propyl) amide] | 1.2 | 0.054 | 4 (≈ 2.17 µM) | 2 (≈ 1.09 µM) | 2 (≈ 1.09 µM) | 0.5 (≈ 0.271 µM) | 2 (≈ 1.09 µM) | 0.5 (≈ 0.271 µM) | ≤ 0.06 | ≤ 0.06 |
| CNC(CC(C)C)C(=O)NC1C(=O)NC(CC(N)=O)C(=O)NC2C(=O)NC3C(=O)NC(C(=O)NC(C(=O)NCCC(c4ccccc4)c4ccccc4)c4cc(O)cc(O)c4-c4cc3ccc4O)C(OC3CC(C)(N)C(O)C(C)O3)c3ccc(c(Cl)c3)Oc3cc2cc(c3OC2OC(CO)C(O)C(O)C2OC2CC(C)(NCc3ccc(-c4ccccc4)cc3)C(O)C(C)O2)Oc2ccc(cc2Cl)C1O (centres unmarked) [Example 22, N^4-(4-phenylbenzyl)A82846B, (3,3-diphenyl-n-propyl) amide] | 1.68 | 0.87 | 32 (≈ 16.4 µM) | 32 (≈ 16.4 µM) | 32 (≈ 16.4 µM) | 8 (≈ 4.1 µM) | 8 (≈ 4.1 µM) | 16 (≈ 8.2 µM) | 0.125 (≈ 0.064 µM) | 0.125 (≈ 0.064 µM) |
| CNC(CC(C)C)C(=O)NC1C(=O)NC(CC(N)=O)C(=O)NC2C(=O)NC3C(=O)NC(C(=O)NC(C(=O)NCCCN(C)C)c4cc(O)cc(O)c4-c4cc3ccc4O)C(OC3CC(C)(N)C(O)C(C)O3)c3ccc(c(Cl)c3)Oc3cc2cc(c3OC2OC(CO)C(O)C(O)C2OC2CC(C)(N)C(O)C(C)O2)Oc2ccc(cc2Cl)C1O.O=C(O)C(F)(F)F (centres unmarked) [Example 23, A82846B, (3-(dimethylamino)-n-propyl)amide, trifluoroacetate salt] | > 128 | 0.44 | 0.125 | ≤ 0.06 | 0.125 | ≤ 0.06 | ≤ 0.06 | ≤ 0.06 | ≤ 0.06 | ≤ 0.06 |
| CNC(CC(C)C)C(=O)NC1C(=O)NC(CC(N)=O)C(=O)NC2C(=O)NC3C(=O)NC(C(=O)NC(C(=O)NCc4ccccc4)c4cc(O)cc(O)c4-c4cc3ccc4O)C(OC3CC(C)(N)C(O)C(C)O3)c3ccc(c(Cl)c3)Oc3cc2cc(c3OC2OC(CO)C(O)C(O)C2OC2CC(C)(N)C(O)C(C)O2)Oc2ccc(cc2Cl)C1O.O=C(O)C(F)(F)F (centres unmarked) [Example 24, A82846B, benzylamide, trifluoroacetate salt] | > 128 | 0.38 | ≤ 0.06 | ≤ 0.06 | ≤ 0.06 | ≤ 0.06 | ≤ 0.06 | ≤ 0.06 | ≤ 0.06 | ≤ 0.06 |
| N^4 -(4-PHENOXYBENZYL)A82846B, 3-(DIMETHYLAMINO)PROPYLAMIDE, TRIFLUOROACETATE SALT [Example 1] | 1.4 | 0.13 | 4 | 2 | 1 | 2 | 2 | 0.25 | ≤ 0.125 | ≤ 0.06 |
| N^4 -(4-phenoxybenzyl)A82846B, benzylamide, trifiuoroacetate salt [Example 9] | 2 | 0.082 | 1 | 1 | 1 | 1 | 1 | 0.5 | ≤ 0.06 | ≤ 0.06 |
